# In US8865733B2, “Medication and treatment for disease” (Altman Enterprises, LLC, priority 2008, dated 2014):
# Columns and labels:
# MS patients [1] = conditions: LDN alone; cited from earlier work
# MS patients [2] = test: Treatment of individual MS patients with the medication (case reports, Patients A, B, C); type: in vivo, human; conditions: Patient C; low dose naltrexone 3 mg daily before the medication
# From the text: Diagnosis was confirmed by an MRI of their brain, lumbar puncture, and visual evolved response.
smiles,measurement,setting,value
"O=C1CC[C@@]2(O)[C@H]3Cc4ccc(O)c5c4[C@@]2(CCN3CC2CC2)[C@H]1O5 [low dose naltrexone, naltrexone]",improvement of physical ability,MS patients [1],no improvement of physical ability
same,improvement under earlier treatment,MS patients [2],no improvement
